Experimental data: patent US8895637B2, “Environment-friendly antifoulants for the prevention of biofouling” (University of North Texas Health Science Center at Fort …, priority 2007, dated 2014)
Like-named read-outs stand apart in the source and are kept apart here.

Experiments:
zebra mussel = details: controlled laboratory setting; cited from earlier work
[1] = mixed with paint applied to a surface or applied as a dust; cited from earlier work
[2] = system: zebra mussels (Dreissena polymorpha)
[3] = system: Daphnia magna (water flea); assay: non-target organism screening, Daphnia cumulative mortality; assay type: in vivo; details: for lethal effect / toxicity towards non-target (Daphnia) organism: at a dose that totally prevents fouling by mussels; for toxicity to other non-target organisms (water fleas, Daphnia magna): summary statement
Procedure: Those compounds that were determined to be highly efficacious zebra mussel antifoulants with little or no toxicity were additionally assessed for toxicity in another non-target aquatic species. The freshwater cladoceran crustacean Daphnia magna (water flea) is commonly utilized for aquatic toxicity testing (Suedel et al., 1997), with 10,583 tests of toxic end points being reported for this species on the USEPA ECOTOX web site. Three replicates of 20 adult specimens of D. magna were exposed to each compound employing a dose range that was the same or greater than that used in zebra mussel antifouling studies. The conditions for toxicity testing of water fleas were the same as those used for testing zebra mussel antifouling and toxicity (i.e., polypropylene containers at 15° C.), except that test medium volume was 40 ml and exposure was increased to three days. Dead individuals were removed every 24 h and the total number of surviving individuals was recorded at the end of 1, 2, and 3 days. Although the level of Daphnia mortality was too low in most cases, when it was high enough to be reliably estimated then the Daphnia lethal dose values (i.e., LD50) were estimated using the same methods employed in the mussel byssal attachment studies. Uniformity of test organisms was maintained by establishing a laboratory D. magna culture with specimens initially purchased from a biological supply company.

[4] = target: vanilloid receptor 1 (VR1) receptor (Homo sapiens, UniProt Q8NER1); details: cited from earlier work
[5] = single high concentration (e.g., 30 μM), 48 h, FIG. 4 and FIG. 6
[6] = single high concentration (e.g., 30 μM), second 48 h post-exposure / both periods

Chain of vanilloid receptor 1 (VR1) receptor (Q8NER1 whole entry, species assumed): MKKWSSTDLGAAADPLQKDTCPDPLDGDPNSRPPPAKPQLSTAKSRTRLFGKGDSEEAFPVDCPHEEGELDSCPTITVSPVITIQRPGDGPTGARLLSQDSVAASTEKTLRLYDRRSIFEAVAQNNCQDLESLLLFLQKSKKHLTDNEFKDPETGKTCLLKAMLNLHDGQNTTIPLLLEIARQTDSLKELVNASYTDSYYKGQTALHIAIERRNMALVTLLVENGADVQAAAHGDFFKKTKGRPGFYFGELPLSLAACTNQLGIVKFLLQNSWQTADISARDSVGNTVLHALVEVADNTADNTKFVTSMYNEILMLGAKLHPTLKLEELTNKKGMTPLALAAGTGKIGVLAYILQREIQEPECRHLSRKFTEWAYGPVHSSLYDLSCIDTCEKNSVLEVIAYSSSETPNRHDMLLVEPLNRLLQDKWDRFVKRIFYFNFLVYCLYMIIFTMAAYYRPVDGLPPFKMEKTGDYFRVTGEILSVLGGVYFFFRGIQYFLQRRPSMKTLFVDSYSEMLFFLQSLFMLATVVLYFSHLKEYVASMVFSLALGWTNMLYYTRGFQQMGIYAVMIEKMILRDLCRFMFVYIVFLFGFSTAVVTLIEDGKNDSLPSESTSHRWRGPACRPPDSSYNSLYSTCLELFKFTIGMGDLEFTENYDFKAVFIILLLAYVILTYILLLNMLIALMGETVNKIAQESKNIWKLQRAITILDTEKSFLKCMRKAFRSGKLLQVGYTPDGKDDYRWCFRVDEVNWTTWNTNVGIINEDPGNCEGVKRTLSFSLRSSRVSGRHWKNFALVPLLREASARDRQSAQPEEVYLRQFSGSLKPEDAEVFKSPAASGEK

Row | SMILES | residual effect to the target organism ([2]; in vivo) | zebra mussel antifouling efficacy ([2]; in vivo) | lethal effect / toxicity towards non-target (Daphnia) organism [3] | antifouling efficacy (fraction of unattached mussels during the first 48 h) ([2]; in vivo) | target organism residual effects ("toxicity") or lethality ([2]; in vivo) | other results
1 | COc1cc(CNC(=O)CCCC/C=C/C(C)C)ccc1O (racemic) [capsaicin, reference compound] | little residual effect | efficacious | no toxicity |  |  | zebra mussel antifoulant effect (zebra mussel): effective; antifouling effectiveness compared with copper [1]: not as effective as copper; toxicity to the target organism (zebra mussels) ([2]; in vivo): reduced toxicity; toxicity to other non-target organisms (water fleas, Daphnia magna) [3]: reduced toxicity
2 | COc1ccc(C(=O)c2c(C)n(CCN3CCOCC3)c3cc(I)ccc23)cc1 [AM630] | some residual effect | efficacious | no significant lethality | efficacious | minimal | dose that totally prevents fouling by mussels ([2]; in vivo): 4 µM
3 | CCCCCCC(C)(C)c1ccc([C@@H]2C[C@H](O)CC[C@@H]2CCCO)c(O)c1 [CP55,940] |  |  |  |  |  | antifouling efficacy (fraction of unattached mussels during the first 48 h) [2, 5]: efficacious; target organism residual effects ("toxicity") or lethality [2, 6]: minimal
4 | CCCCC/C=C\C/C=C\CCCCCCCC(=O)NCCO [Linoleyl ethanolamide] |  |  |  | efficacious | minimal | 
5 | CCCCCCCCCC(=O)NC(CC)CO (centres unmarked) [N-(1-(hydroxymethyl)propyl)decanamide] |  |  |  | efficacious | minimal | 
6 | CCCCCCCCCCCC(=O)NCC(=O)NN=Cc1ccc(OC)c(OC)c1 [N-(2-(2-(3,4-dimethoxybenzylidene)hydrazine)-2-oxoethyl)dodecanamide] |  |  |  | efficacious | minimal | 
7 | CC1=CC[C@H]2[C@@H](C1)c1c(O)cc(CC#CCCCNS(C)(=O)=O)cc1OC2(C)C [O-2050] |  | efficacious | no lethal effect | efficacious | minimal | residual effect at a dose that totally prevents biofouling ([2]; 6 μM): no residual effect; antifouling potency ([2]; in vivo): higher potency; dose that totally prevents fouling by mussels ([2]; in vivo): 6 µM
8 | CCCCC/C=C\C/C=C\C/C=C\C/C=C\CCCC(=O)NCCO [anandamide] | no residual effect | efficacious | no lethal effect | efficacious | minimal | dose that totally prevents fouling by mussels ([2]; in vivo): 15 µM; toxicity to the target organism (zebra mussels) ([2]; in vivo): reduced toxicity; toxicity to other non-target organisms (water fleas, Daphnia magna) [3]: reduced toxicity
9 | COc1cc(CNC(=O)CCCC/C=C/C(C)C)ccc1O [compound 28, 8-methyl-N-vanillyl-trans-6-nonenamide] |  |  |  | efficacious | minimal | toxicity of the stereoisomer towards the non-target (Daphnia) organism ([3]; inferred from the result for racemic capsaicin): neither stereoisomer (E or Z) is toxic
10 | COc1cc(CNC(=O)CCCC/C=C\C(C)C)ccc1O [compound 29] |  |  |  | efficacious | minimal | action on the vanilloid receptor 1 (VR1) receptor [4]: does not act on; attachment of zebra mussels to aquatic striatum ([2]; in vivo): prevents the attachment; toxicity to the target organism ([2]; in vivo): non-toxic
11 | CCCCC/C=C\C/C=C\C/C=C\C/C=C\CCCCOC(CO)CO [noladin ether] |  |  |  |  |  | antifouling efficacy (fraction of unattached mussels during the first 48 h) [2, 5]: efficacious; target organism residual effects ("toxicity") or lethality [2, 6]: minimal
12 | CCCCCCCCC(=O)NCc1ccc(O)c(OC)c1 [pseudocapsaicin, N-vanillylnonanamide] | little residual effect | efficacious | not lethal |  |  | antifouling ([2]; 20 μM): 100%; antifouling ([2]; 30 μM): 100%; toxicity to the target organism (zebra mussels) ([2]; in vivo): reduced toxicity; Daphnia toxicity over controls ([3]; 72 h exposure, 20 and 30 μM): no measurable toxicity over controls; lethal effect / toxicity towards non-target (Daphnia) organism ([3]; listed as N-vanillylnonanamide): no significant toxicity; Daphnia mortality ([3]; highest test dose (60 μM), 72 h time point): Statistically significant Daphnia mortality; toxicity to other non-target organisms (water fleas, Daphnia magna) [3]: reduced toxicity
